What is called pKi is the negative decadic logarithm of the Ki, by convention in mol/L. Read a low pKi as a large Ki. Usually pEC50 stands for −log10 of the EC50, conventionally taken in molar units.

pEC50, pKi: −log10 of the molar value. A value given as a limit tells only on which side of the number the result lay.

Data on 17 compounds can be found in ChEMBL document CHEMBL1149237, “Design and synthesis of benzofused heterocyclic RXR modulators” (Bioorg Med Chem Lett, 2004).

The target in test [1] is T1, Retinoic acid receptor gamma (Homo sapiens, UniProt P13631).
T1 sequence (P13631 whole entry): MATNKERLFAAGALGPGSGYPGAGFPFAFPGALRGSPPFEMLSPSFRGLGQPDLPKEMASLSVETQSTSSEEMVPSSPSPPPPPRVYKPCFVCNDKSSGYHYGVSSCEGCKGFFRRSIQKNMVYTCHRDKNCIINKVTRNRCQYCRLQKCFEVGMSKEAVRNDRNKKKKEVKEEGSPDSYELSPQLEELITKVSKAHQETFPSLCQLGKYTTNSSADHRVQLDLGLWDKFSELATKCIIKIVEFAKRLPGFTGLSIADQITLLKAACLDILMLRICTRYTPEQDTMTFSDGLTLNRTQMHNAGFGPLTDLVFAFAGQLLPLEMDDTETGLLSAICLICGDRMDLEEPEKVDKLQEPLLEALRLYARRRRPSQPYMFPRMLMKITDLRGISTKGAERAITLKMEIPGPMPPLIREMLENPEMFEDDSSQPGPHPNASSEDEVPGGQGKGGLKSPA
Description: Ability to displace [3H]ATRA from Retinoic acid receptor gamma in CV-1 cells. Format: cell-based, Cercopithecidae.

The target of test [2] is T2, Retinoic acid receptor RXR-alpha (Homo sapiens, UniProt P19793).
T2 sequence (P19793 whole entry): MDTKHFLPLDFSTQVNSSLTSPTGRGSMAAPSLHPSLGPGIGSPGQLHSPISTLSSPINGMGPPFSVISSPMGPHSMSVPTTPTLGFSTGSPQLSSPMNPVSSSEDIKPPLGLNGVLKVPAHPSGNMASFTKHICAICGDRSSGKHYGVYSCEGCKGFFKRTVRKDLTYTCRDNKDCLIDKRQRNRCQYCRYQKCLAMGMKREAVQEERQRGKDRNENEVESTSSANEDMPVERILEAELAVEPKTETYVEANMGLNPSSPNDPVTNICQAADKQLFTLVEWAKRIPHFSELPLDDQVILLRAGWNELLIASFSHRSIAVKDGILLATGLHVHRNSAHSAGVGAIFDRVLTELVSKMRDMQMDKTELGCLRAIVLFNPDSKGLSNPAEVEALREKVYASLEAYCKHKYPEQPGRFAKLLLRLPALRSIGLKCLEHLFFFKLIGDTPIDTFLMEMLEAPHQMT
Description: Ability to displace [3H]9-cis-RA from Retinoid X receptor alpha in CV-1 cells. Format: cell-based, Cercopithecidae.

Test [3] deals with T3, Peroxisome proliferator-activated receptor gamma (Homo sapiens) (UniProt P37231).
T3 sequence (whole entry): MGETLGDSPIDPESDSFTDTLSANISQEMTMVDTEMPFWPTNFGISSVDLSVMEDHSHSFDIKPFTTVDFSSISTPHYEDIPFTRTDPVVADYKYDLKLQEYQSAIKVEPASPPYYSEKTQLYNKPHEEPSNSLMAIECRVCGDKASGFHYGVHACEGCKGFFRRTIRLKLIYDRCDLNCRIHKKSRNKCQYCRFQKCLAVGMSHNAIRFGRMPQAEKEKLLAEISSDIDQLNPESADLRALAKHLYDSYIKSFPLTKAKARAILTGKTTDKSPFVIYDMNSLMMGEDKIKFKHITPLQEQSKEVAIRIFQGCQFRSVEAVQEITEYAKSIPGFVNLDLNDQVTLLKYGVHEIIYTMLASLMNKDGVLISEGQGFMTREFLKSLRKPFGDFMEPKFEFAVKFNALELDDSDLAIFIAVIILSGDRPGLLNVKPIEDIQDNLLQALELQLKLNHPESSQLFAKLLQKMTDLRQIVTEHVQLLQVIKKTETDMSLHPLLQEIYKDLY
Description: Ratio between agonistic efficacy in PPAR gamma. The test is classed as functional. The settings on record: Cercopithecidae.

Test [4] has as its target T4, Retinoic acid receptor RXR-alpha (Homo sapiens) (UniProt P19793).
T4 sequence (whole entry): T2 sequence (P19793 whole entry)
Description: Antagonistic efficacy in CV-1 cells (LGD1069 was used as reference). Format: functional, cell-based. Conditions: Cercopithecidae.

In another test the test system is Cercopithecidae. Description: RAR agonist synergy calculated using 3 nM of TTNPB. Format: functional.
The target in test [5] is T2, Retinoic acid receptor RXR-alpha. Description: Effective concentration for antagonistic activity against RXR-alpha expressed in CV-1 cells. Format: functional, cell-based, Cercopithecidae.
The target of test [6] is T4, Retinoic acid receptor RXR-alpha (Homo sapiens). Nature of the test: Agonistic efficacy in CV-1 cells (LGD1069 was used as reference). The test is classed as functional, cell-based. Conditions: Cercopithecidae.
Test [7] has as its target T3, Peroxisome proliferator-activated receptor gamma (Homo sapiens). Description: Ratio between effective concentrations (Agonist) in PPAR gamma. Format: functional. The settings on record: Cercopithecidae.
In test [8] the target is T2, Retinoic acid receptor RXR-alpha. Nature of the test: Effective concentration required for agonistic activity in CV-1 cells expressing RXR-alpha. Format: functional, cell-based, Cercopithecidae.

Take `C/C(=C\C(=O)O)c1ccc2scc(-c3cc(C(C)C)cc(C(C)C)c3OCCCF)c2c1`: the pKi was < 5.00 in [1] and 6.40 in test [2]. In addition, the Ratio in [3] came to 123; in [7], 1480. Moreover, the figures for the Efficacy in test [4] and in test [6] were 48% and 1.78%, respectively. Besides, the Synergy in the test on Cercopithecidae is 1.5. The compound further gave a pEC50 in [5] of 5.38.

As to `CCOc1c(-c2cnc3ccc(/C(C)=C/C(=O)O)cn23)cc(C(C)C)cc1C(C)C`, the negative-log Ki (pKi) in [1] is < 5.00; in [2] it was 5.68. Further, the Ratio in test [3] came to 81.8; in test [7], 425. Further, the Efficacy in test [4] amounted to 9%; in test [6] it was 7.93%. For the same compound, the Synergy in the test on Cercopithecidae is 1.5.

As for `C/C(=C\C(=O)O)c1ccc2[nH]cc(-c3cc(C(C)(C)C)cc(C(C)(C)C)c3OCC(F)F)c2c1`, the pKi in test [1] was < 5.00; in test [2], 8.80. The Ratio in [3] came to 233; in [7] it was 21.9. The results for the Efficacy in test [4] and in test [6] were 41% and 15%, respectively. The Synergy in the test on Cercopithecidae is 3. The values for the pEC50 in test [5] and in test [8] were 7.18 and 7.19, respectively.

For the compound `CCOc1c(-c2csc3cnc(/C(C)=C/C(=O)O)cc23)cc(C(C)C)cc1C(C)C`, the Ratio in test [3] stood at 127; in test [7], 347. Also, the Efficacy in test [4] came out at 9%; in [6], 15.1%. Also, in the test on Cercopithecidae, the Synergy is 2. The same compound showed a pEC50 in test [8] of 5.84.

`CCCCOc1c(-c2cccc3[nH]c(/C(C)=C/C(=O)O)cc23)cc(C(C)C)cc1C(C)C`: the Ratio in test [3] was 24.9; in [7], 893. Also, the Efficacy in test [4] amounted to 64%; in test [6], 0.51%. For the same compound, the Synergy with Cercopithecidae was 1.1. Besides, the negative logarithm of the EC50 (pEC50) in [5] is 5.40.

Take `CCOc1c(-c2n[nH]c3ccc(/C(C)=C/C(=O)O)cc23)cc(C(C)C)cc1C(C)C`: the negative-log Ki (pKi) was < 5.00 in test [1] and 7.16 in [2]. In test [8], this compound showed a negative logarithm of the EC50 (pEC50) of 6.63.

Turning to `CCOc1c(\C(C)=C/C=C/C(C)=C/C(=O)O)cc(C(C)C)cc1C(C)C`, the pKi in [1] is < 5.00. Also, the figures for the Ratio in [3] and in test [7] were 38 and 8, respectively. For the same compound, the results for the Efficacy in test [4] and in [6] were 7% and 58%, respectively. Further, the Synergy in the test on Cercopithecidae is 5.

Take `CCOc1c(-c2[nH]nc3ccc(/C(C)=C/C(=O)O)cc23)cc(C(C)C)cc1C(C)C`: the Ratio in test [3] amounted to 168; in test [7] it was 118. Besides, the figures for the Efficacy in test [4] and in test [6] were 7% and 43%, respectively. Further, the Synergy in the test on Cercopithecidae is 2.4.

As for `COc1c(-c2csc3ccc(/C(C)=C/C(=O)O)cc23)cc(C(C)C)cc1C(C)C`, the pKi in test [1] was < 5.00; in test [2], 7.53. For the same compound, the Ratio in test [3] was 114; in test [7], 224. For the same compound, the Efficacy in test [4] stood at 0%; in test [6] it was 65.4%. Moreover, the Synergy in the test on Cercopithecidae was 2.7. The pEC50 in [8] was 6.04.

For `CCCCOc1c(\C(C)=C/C=C/C(C)=C/C(=O)O)cc(C(C)C)cc1C(C)C`, the negative logarithm of the Ki (pKi) in test [1] was < 5.00. In addition, the Ratio in test [3] was 12; in [7] it was 1890. Further, the Efficacy in test [4] turned out to be 91%; in test [6], 2%. In addition, the Synergy with Cercopithecidae was 1. This compound showed a negative logarithm of the EC50 (pEC50) in [5] of 8.40.

As for `CCCOc1c(-c2c[nH]c3ccc(/C(C)=C/C(=O)O)cc23)cc(C(C)(C)C)cc1C(C)(C)C`, the pKi in test [1] is < 5.00; in [2] it was 8.80. Further, the Ratio was 173 in test [3] and 7 in test [7]. Further, the Efficacy in test [4] stood at 81%; in test [6], 7%. The Synergy in the test on Cercopithecidae was 3.4. Further, the pEC50 in test [5] is 7.52.

On to `CCCCOc1c(-c2c[nH]c3ccc(/C(C)=C/C(=O)O)cc23)cc(C(C)C)cc1C(C)C`, for which the negative logarithm of the Ki (pKi) in test [1] is < 5.00; in [2], 8.13. Also, the values for the Ratio in test [3] and in [7] were 256 and 15, respectively. In addition, the Efficacy in test [4] stood at 87%; in [6], 1.7%. The Synergy in the test on Cercopithecidae was 1.3. The same compound showed a negative-log EC50 (pEC50) in [5] of 7.68.

For the compound `CCCCOc1c(-c2cn(C)c3ccc(/C(C)=C/C(=O)O)cc23)cc(C(C)C)cc1C(C)C`, the negative logarithm of the Ki (pKi) in [1] is < 5.00; in test [2], 6.13. The Ratio in test [3] came to 49; in [7], 612. The Efficacy in test [4] stood at 86%; in test [6] it was 2.52%. For the same compound, the Synergy with Cercopithecidae was 2.5. The compound also showed a pEC50 in test [5] of 5.81.

With `C/C(=C\C(=O)O)c1ccc2scc(-c3cc(C(C)C)cc(C(C)C)c3O)c2c1`, the pKi in [1] was < 5.00; in test [2], 6.88. Moreover, the Ratio in [3] turned out to be 112; in [7] it was 384. Moreover, the Efficacy is 0% in test [4] and 37.4% in [6]. Also, the Synergy in the test on Cercopithecidae was 3.5. Moreover, in test [8], the negative-log EC50 (pEC50) is 5.84.

Turning to `C/C(=C/C=C/C(C)=C/C(=O)O)c1cc(C(C)(C)C)cc(C(C)(C)C)c1OCCCF`, the pKi was < 5.00 in test [1] and 8.57 in [2]. Also, the Ratio in test [3] is 60; in test [7], 3.1. Further, the Efficacy in [4] was 84%; in test [6], 4%. The Synergy with Cercopithecidae was 1.4. The compound further gave a pEC50 in [5] of 8.19.

On to `CCCCOc1c(-c2c[nH]c3ccc(/C(C)=C/C(=O)O)cc23)cc(C(C)(C)C)cc1C(C)(C)C`, for which the negative logarithm of the Ki (pKi) was < 5.00 in test [1] and 8.49 in test [2]. Further, the values for the Ratio in [3] and in test [7] were 105 and 8.9, respectively. For the same compound, the Efficacy in [4] amounted to 93%; in [6], 1%. For the same compound, the Synergy with Cercopithecidae is 2.3. This compound had a negative-log EC50 (pEC50) in [5] of 7.58.

Consider `CCOc1c(-c2noc3ccc(/C(C)=C/C(=O)O)cc23)cc(C(C)C)cc1C(C)C`, for which the pKi in test [1] was < 5.00; in [2], 6.19. Moreover, the values for the Ratio in test [3] and in test [7] were 65 and 306, respectively. Moreover, the figures for the Efficacy in test [4] and in [6] were 24% and 36%, respectively. The Synergy with Cercopithecidae is 1.7. Besides, in [8], the pEC50 was 5.99.
